The values that follow come from patent publication US20170152239A1, “BENZAMIDE AND HETEROBENZAMIDE COMPOUNDS” (PFIZER INC., priority 2012, published 2017).

The test addresses WT EZH2 (EZH2 4 protein complex: EZH2, EED, SUZ12, RbAp48) (Homo sapiens, UniProt O75530+Q09028+Q15022+Q15910). Briefly: WT EZH2 nucleosome assay. In kind it is biochemical. The following applies: nucleosome assay, 5 nM EZH2 4-protein complex, 1.5 μM SAM; read-out: WT EZH2 IC50. On the procedure:
Nucleosome Assay Protocol:
A. Compound preparation • 1. Prepare 10 mM stock solutions in 100% DMSO from solid material • 2. Serial dilute 10 mM compound stocks either 2 or 3-fold in 100% DMSO to generate compounds for 11 point dose response
B. Reagent preparation • 1. Prepare 1× assay buffer containing 100 mM Tris pH 8.5, 4 mM DTT and 0.01% Tween-20 • 2. Dilute purified HeLA oligonucleosomes and recombinant histone H1 (New England Biolabs) in assay buffer to 1.67×. • 3. Dilute EZH2 4 protein complex (EZH2, EED, SUZ12, RbAp48) to 3.5× in assay buffer • 4. Prepare 10×^3H SAM solution in assay buffer using 0.94 μCi/well of radioactive SAM (Perkin Elmer) and sufficient non-labeled SAM (Sigma) for 1.5 μM final concentration. • 5. Dilute TCA to 20% in DI water
C. Enzyme reaction • 1. Final reaction conditions are 5 nM EZH2 4-protein complex, 1.5 μM SAM, 25 μg/mL oligonucleosomes, 50 nM rH1 in a 50 μl reaction volume. • 2. Add 1 μl of diluted compound to the assay plate (96-well V-bottom polypropylene plates) or 1 μl of DMSO for control wells. • 3. Add 30 μl of nucleosomes to the assay plate • 4. Add 14 μl of EZH2 4 protein complex to the assay plate • 5. Add 5 μl of ^3H SAM to start the reaction. • 6. Stop the reaction after 60 minutes with the addition of 100 μl of 20% TCA • 7. Transfer 150 μl of quenched reaction into a prepared filterplate (Millipore #MSIPN4B10) • 8. Apply vacuum to the filterplate to filter the reaction mix through the membrane. • 9. Wash the filterplate with 8×200 μl of PBS, blot dry and dry in an oven for 30 minutes • 10. Add 50 μl of microscint-20 scintillation fluid (Perkin Elmer) to each well, wait 30 minutes and count on a liquid scintillation counter.
D. Data analysis • 1. IC50 values were determined by fitting the data to a 4-parameter IC50 equation using proprietary curve fitting software.
Wild type (WT) EZH2% Effect at 20 μM and IC50 values (μM) generated in WT EZH2 or EZH2PRC2 mutant Y641N nucleosome assays are provided in Table 3 below. A blank entry in the table indicates the data was not generated in that assay.

Broadly, the IC50 is the concentration at which inhibition is half-maximal.

Structures are written as SMILES.

Sequence of WT EZH2 (EZH2 4 protein complex: EZH2, EED, SUZ12, RbAp48) (Q15910 whole entry): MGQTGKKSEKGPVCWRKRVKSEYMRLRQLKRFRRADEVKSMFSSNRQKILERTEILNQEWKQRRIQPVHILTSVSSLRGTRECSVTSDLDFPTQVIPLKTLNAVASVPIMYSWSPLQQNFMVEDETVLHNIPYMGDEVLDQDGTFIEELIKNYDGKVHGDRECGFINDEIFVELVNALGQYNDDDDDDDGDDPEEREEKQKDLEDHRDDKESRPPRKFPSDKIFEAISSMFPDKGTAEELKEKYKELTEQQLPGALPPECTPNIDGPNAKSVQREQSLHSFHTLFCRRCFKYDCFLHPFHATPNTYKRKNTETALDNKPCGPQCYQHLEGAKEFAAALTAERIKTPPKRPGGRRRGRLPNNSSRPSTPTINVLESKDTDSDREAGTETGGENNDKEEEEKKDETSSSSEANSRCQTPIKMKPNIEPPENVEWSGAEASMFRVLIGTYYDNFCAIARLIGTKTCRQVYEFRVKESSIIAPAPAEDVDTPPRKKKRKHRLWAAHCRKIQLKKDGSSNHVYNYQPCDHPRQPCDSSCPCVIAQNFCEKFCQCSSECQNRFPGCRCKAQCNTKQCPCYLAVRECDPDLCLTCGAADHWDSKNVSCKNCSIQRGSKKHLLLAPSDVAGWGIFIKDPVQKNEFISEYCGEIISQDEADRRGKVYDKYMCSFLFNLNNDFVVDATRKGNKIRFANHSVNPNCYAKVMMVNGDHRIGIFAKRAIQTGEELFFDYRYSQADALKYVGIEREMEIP
Sequence of WT EZH2 (EZH2 4 protein complex: EZH2, EED, SUZ12, RbAp48) (O75530 whole entry partner): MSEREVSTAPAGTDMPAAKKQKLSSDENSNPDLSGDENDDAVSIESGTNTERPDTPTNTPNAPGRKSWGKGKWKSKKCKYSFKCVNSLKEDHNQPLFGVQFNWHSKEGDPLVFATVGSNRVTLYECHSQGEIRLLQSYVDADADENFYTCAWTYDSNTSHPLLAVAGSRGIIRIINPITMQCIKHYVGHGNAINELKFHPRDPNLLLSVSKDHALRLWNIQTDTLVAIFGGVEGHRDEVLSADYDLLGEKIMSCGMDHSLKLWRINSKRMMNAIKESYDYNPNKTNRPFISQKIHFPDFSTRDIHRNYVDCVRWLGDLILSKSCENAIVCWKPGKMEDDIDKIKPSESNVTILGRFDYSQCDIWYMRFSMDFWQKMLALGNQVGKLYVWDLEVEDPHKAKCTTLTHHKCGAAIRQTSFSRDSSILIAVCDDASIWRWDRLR
Sequence of WT EZH2 (EZH2 4 protein complex: EZH2, EED, SUZ12, RbAp48) (Q15022 whole entry partner): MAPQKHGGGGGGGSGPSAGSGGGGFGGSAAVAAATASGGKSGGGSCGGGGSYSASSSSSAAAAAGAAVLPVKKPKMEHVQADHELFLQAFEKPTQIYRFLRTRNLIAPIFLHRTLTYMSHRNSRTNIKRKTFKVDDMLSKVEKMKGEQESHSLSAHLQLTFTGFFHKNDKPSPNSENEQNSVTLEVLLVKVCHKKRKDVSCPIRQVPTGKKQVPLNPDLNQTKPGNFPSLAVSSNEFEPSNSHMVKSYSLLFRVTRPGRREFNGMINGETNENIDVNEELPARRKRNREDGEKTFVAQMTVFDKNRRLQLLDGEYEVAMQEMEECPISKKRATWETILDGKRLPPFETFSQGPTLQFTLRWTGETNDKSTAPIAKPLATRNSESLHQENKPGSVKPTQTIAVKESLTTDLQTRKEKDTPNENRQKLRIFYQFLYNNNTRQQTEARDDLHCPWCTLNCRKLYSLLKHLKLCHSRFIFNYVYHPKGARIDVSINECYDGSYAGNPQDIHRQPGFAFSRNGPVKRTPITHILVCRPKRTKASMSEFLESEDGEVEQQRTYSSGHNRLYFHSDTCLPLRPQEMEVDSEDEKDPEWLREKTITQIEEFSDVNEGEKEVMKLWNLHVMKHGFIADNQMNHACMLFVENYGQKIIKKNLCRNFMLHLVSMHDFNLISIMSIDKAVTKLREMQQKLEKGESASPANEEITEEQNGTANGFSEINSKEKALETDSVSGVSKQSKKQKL
Sequence of WT EZH2 (EZH2 4 protein complex: EZH2, EED, SUZ12, RbAp48) (Q09028 whole entry partner): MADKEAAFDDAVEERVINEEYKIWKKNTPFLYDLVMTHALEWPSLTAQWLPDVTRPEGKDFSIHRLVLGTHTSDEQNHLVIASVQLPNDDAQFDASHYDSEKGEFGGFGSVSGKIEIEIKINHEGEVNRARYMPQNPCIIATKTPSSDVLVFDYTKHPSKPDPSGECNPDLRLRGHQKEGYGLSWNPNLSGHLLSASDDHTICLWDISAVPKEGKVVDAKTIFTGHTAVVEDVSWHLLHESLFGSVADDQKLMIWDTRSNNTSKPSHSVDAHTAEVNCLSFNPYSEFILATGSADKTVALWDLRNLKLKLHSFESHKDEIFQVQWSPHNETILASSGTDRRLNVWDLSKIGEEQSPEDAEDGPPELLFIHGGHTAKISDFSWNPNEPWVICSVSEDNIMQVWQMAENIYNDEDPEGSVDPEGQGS

With `Cc1cc(C)c(CNC(=O)c2cccc(-c3c(C#N)cnn3C)c2C)c(=O)[nH]1` [Example 76, 3-(4-cyano-1-methyl-1H-pyrazol-5-yl)-N-[(4,6-dimethyl-2-oxo-1,2-dihydropyridin-3-yl)methyl]-2-methylbenz-amide], the IC50 was found to be 6.94 µM. In the case of `Cc1cc(C)c(CNC(=O)c2cc(Cl)cc(-n3cnnc3C)c2C)c(=O)[nH]1` [Example 78, 5-chloro-N-[(4,6-dimethyl-2-oxo-1,2-dihydropyridin-3-yl)methyl]-2-methyl-3-(3-methyl-4H-1,2,4-triazol-4-yl)benzamide] it was 7.31 µM; in that of `Cc1cc(C)c(CNC(=O)c2nc(-c3cncnc3)nc(-c3ccnn3C)c2C)c(=O)[nH]1` [Example 80, N-[(4,6-dimethyl-2-oxo-1,2-dihydropyridin-3-yl)methyl]-5-methyl-6-(1-methyl-1H pyrazol-5-yl)-2,5′-bipyrimidine-4-carboxamide], 7.53 µM. In the case of `Cc1cc(C)c(CNC(=O)c2nc(N3CCOCC3)nc(N3CCC[C@@H]3C)c2C)c(=O)[nH]1` [Example 81, N-[(4,6-dimethyl-2-oxo-1,2-dihydropyridin-3-yl)methyl]-5-methyl-6-[(2S)-2-methylpyrroli-din-1-yl]-2-morpholin-4-ylpyrimidine-4-carboxamide], the IC50 stood at 7.74 µM. In the case of `Cc1cc(C)c(CNC(=O)c2ncnc(N3C4CCC3CC4)c2C)c(=O)[nH]1` [Example 83, 6-(7-azabicyclo[2.2.1]hept-7-yl)-N-[(4,6-dimethyl-2-oxo-1,2-dihydropyridin-3-yl)methyl]-5-methyl-pyrimidine-4-carobxamide] it was 7.96 µM; in that of `Cc1[nH]c(=O)c(CNC(=O)c2cc(Cl)cc(-c3ccnn3C)c2C)c2c1CCCC2` [Example 84, 5-chloro-2-methyl-N-[(1-methyl-3-oxo-2,3,5,6,7,8-hexahydroiso-quinolin-4-yl)methyl]-3-(1-methyl-1H-pyrazol-5-yl)benzamide], 8.14 µM. Turning to `Cc1cc(C)c(CNC(=O)c2ccnc(OC(C)C)c2C)c(=O)[nH]1` [Example 87, N-[(4,6-dimethyl-2-oxo-1,2-dihydropyridin-3-yl)methyl]-2-isopropxy-3-methylisonico-tinamide], the half-inhibitory concentration (IC50) came out at 9.76 µM. Turning to `Cc1cc(C)c(CNC(=O)c2nc(OCCO)nc(-c3ccnn3C)c2C)c(=O)[nH]1` [Example 90, N-[(4,6-dimethyl-2-oxo-1,2-dihydropyridin-3-yl)methyl]-2-(2-hydroxyethoxy)-5-methyl-6-(1-methyl-1H-pyrazol-5-yl)pyrimidine-4-carboxamide], the IC50 worked out at 12 µM. In the case of `Cc1cc(C)c(CNC(=O)c2ccnc(-c3ccnn3C)c2Cl)c(=O)[nH]1` [Example 91, 3-chloro-N-[(4,6-dimethyl-2-oxo-1,2-dihydropyridin-3-yl)methyl]-2-(1-methyl-1H-pyrazol-5-yl)isonicotin-amide], the IC50 was determined as 12.1 µM.

As to `Cc1cc(C)c(CNC(=O)c2nc(N3CCCC3)nc(-c3ccnn3C)c2C)c(=O)[nH]1` [Example 92, N-[(4,6-dimethyl-2-oxo-1,2-dihydropyridin-3-yl)methyl]-5-methyl-6-(1-methyl-1H-pyrazol-5-yl)-2-pyrrolidin-1-ylpyrimidine-4-carboxamide], the half-maximal inhibitory concentration (IC50) was 12.8 µM.

For `Cc1cc(C)c(CNC(=O)c2nc(O[C@@H]3CCOC3)nc(-c3ccnn3C)c2C)c(=O)[nH]1` [Example 93, N-[(4,6-dimethyl-2-oxo-1,2-dihydropyridin-3-yl)methyl]-5-methyl-6-(1-methyl-1H-pyrazol-5-yl)-2-[(3R)-tetrahydro-furan-3-yloxy]pyrimi-dine-4-carboxamide], the IC50 came to 14.5 µM. As to `Cc1cc(C)c(CNC(=O)c2nc(C3CC3)nc(-c3ccnn3C)c2C)c(=O)[nH]1` [Example 94, 2-cyclopropyl-N-[(4,6-dimethyl-2-oxo-1,2-dihydropyridin-3-yl)methyl]-5-methyl-6-(1-methyl-1H-pyrazol-5-yl)pyrimidine-4-carboxamide], the IC50 was 16 µM.

`CCC1CCCN1c1ncnc(C(=O)NCc2c(C)cc(C)[nH]c2=O)c1C` (stereo not drawn) [Example 95, N-[(4,6-dimethyl-2-oxo-1,2-dihydropyridin-3-yl)methyl]-6-(2-ethylpyrrolidin-1-yl)-5-methylpyrimi-dine-4-carboxamide]: the IC50 was 16.5 µM. For the compound `Cc1cc(C)c(CNC(=O)c2nc(N(C)C)nc(N3CCC[C@@H]3C)c2C)c(=O)[nH]1` [Example 96, 2-(dimethylamino)-N-[(4,6-dimethyl-2-oxo-1,2-dihydropyridin-3-yl)methyl]-5-methyl-6-[(2S)-2-methyplyrrolidin-1-yl]pyrimidine-4-carboxamide], the concentration for half-maximal inhibition (IC50) is 16.5 µM. Consider `Cc1cc(C)c(CNC(=O)c2ccnc(N3[C@H](C)CC[C@@H]3C)c2Cl)c(=O)[nH]1` [Example 97, 3-chloro-N-[(4,6-dimethyl-2-oxo-1,2-dihydropyridin-3-yl)methyl]-2-[(2R,5S)-2,5-dimethylpyrroli-din-1-yl]iso-nicotinamide], for which the IC50 is 16.9 µM. Turning to `Cc1cc(C)c(CNC(=O)c2nc(OCCN3CCC(F)(F)CC3)nc(-c3ccnn3C)c2C)c(=O)[nH]1` [Example 98, 2-[2-(4,4-difluoropiperi-din-1-yl)ethoxy]-N-[(4,6-dimethyl-2-oxo-1,2-dihydropyridin-3-yl)methyl]-5-methyl-6-(1-methyl-1H-pyrazol-5-yl)pyrimidine-4-carboxamide], the IC50 amounted to 17.3 µM. As for `Cc1cc(C(=O)NCc2c(C)cc(C)[nH]c2=O)c(C#N)c(OC(C)C)n1` [Example 99, 3-cyano-N-[(4,6-dimethyl-2-oxo-1,2-dihydropyridin-3-yl)methyl]-2-isopropoxy-6-methyliso-nicotinamide], the half-maximal inhibitory concentration (IC50) worked out at 17.6 µM. `Cc1cc(C)c(CNC(=O)c2nc(OC(C)C)nc(-c3ccnn3C)c2C)c(=O)[nH]1` [Example 100, N-[(4,6-dimethyl-2-oxo-1,2-dihydropyridin-3-yl)methyl]-2-isopropoxy-5-methyl-6-(1-methyl-1H-pyrazol-5-yl)pyrimidine-4-carboxamide]: the concentration for half-maximal inhibition (IC50) turned out to be 17.6 µM. Under `Cc1cc(C)c(CNC(=O)c2nc(OCCN3CC[C@H](F)C3)nc(-c3ccnn3C)c2C)c(=O)[nH]1` [Example 101, N-[(4,6-dimethyl-2-oxo-1,2-dihydropyridin-3-yl)methyl]-2-{2-[(3S)-3-fluoropyrrolidin-1-yl]ethoxy}-5-methyl-6-(1-methyl-1H-pyrazol-5-yl)pyrimidine-4-carboxamide] stands 18.4 µM. Under `CCOc1nc(C(=O)NCc2c(C)cc(C)[nH]c2=O)c(C)c(-c2ccnn2C)n1` [Example 102, N-[(4,6-dimethyl-2-oxo-1,2-dihydropyridin-3-yl)methyl]-2-ethoxy-5-methyl-6-(1-methyl-1H-pyrazol-5-yl)pyrimidine-4-carboxamide] stands 18.6 µM; under `Cc1cc(C)c(CNC(=O)c2nc(OCCN3CC[C@@H](F)C3)nc(-c3ccnn3C)c2C)c(=O)[nH]1` [Example 103, N-[(4,6-dimethyl-2-oxo-1,2-dihydropyridin-3-yl)methyl]-2-{2-[(3R)-3-fluoropyrrolidin-1-yl]ethoxy}-5-methyl-6-(1-methyl-1H-pyrazol-5-yl)pyrimidine-4-carboxamide], 19.1 µM.
